Source: ChEMBL document CHEMBL4033739, “Design and synthesis of novel δ opioid receptor agonists with an azatricyclodecane skeleton for improving blood-brain barrier penetration” (Bioorg Med Chem Lett, 2017)
pEC50, pKi: −log10 of the molar value.

What was measured:
Mu-type opioid receptor [1] = molecular target: T1, Mu-type opioid receptor (Homo sapiens, UniProt P35372); test: Displacement of [3H]DAMGO from human recombinant MOR expressed in CHO cell membranes
[2] = molecular target: T2, Delta-type opioid receptor (Homo sapiens, UniProt P41143); test: Displacement of [3H]DPDPE from human recombinant DOR expressed in CHO cell membranes
[3] = molecular target: T2, Delta-type opioid receptor; test: Agonist activity at human recombinant DOR expressed in CHO cells assessed as cAMP accumulation; type: functional, cell-based
Mu-type opioid receptor [4] = molecular target: T1, Mu-type opioid receptor; test: Agonist activity at human recombinant MOR expressed in CHO cells assessed as cAMP accumulation at 10 uM relative to DAMGO; type: functional, cell-based
Homo sapiens [5] = species: Homo sapiens; test: Selectivity index, ratio of Ki for human recombinant KOR expressed in CHO cell membranes to Ki for human recombinant DOR expressed in CHO cell membranes; type: cell-based
[6] = molecular target: T3, Kappa-type opioid receptor (Homo sapiens, UniProt P41145); test: Displacement of [3H]U-69,593 from human recombinant KOR expressed in CHO cell membranes
[7] = molecular target: T2, Delta-type opioid receptor; test: Agonist activity at human recombinant DOR expressed in CHO cells assessed as cAMP accumulation relative to SNC80; type: functional, cell-based
[8] = molecular target: T3, Kappa-type opioid receptor; test: Agonist activity at human recombinant KOR expressed in CHO cells assessed as cAMP accumulation relative to U-69,593; type: functional, cell-based
Homo sapiens [9] = species: Homo sapiens; test: Selectivity index, ratio of Ki for human recombinant MOR expressed in CHO cell membranes to Ki for human recombinant DOR expressed in CHO cell membranes; type: cell-based
[10] = molecular target: T3, Kappa-type opioid receptor; test: Agonist activity at human recombinant KOR expressed in CHO cells assessed as cAMP accumulation; type: functional, cell-based
Mu-type opioid receptor [11] = molecular target: T1, Mu-type opioid receptor; test: Agonist activity at human recombinant MOR expressed in CHO cells assessed as cAMP accumulation relative to DAMGO; type: functional, cell-based
Mu-type opioid receptor [12] = molecular target: T1, Mu-type opioid receptor; test: Agonist activity at human recombinant MOR expressed in CHO cells assessed as cAMP accumulation; type: functional, cell-based
Mus musculus = test: Antinociceptive activity in sc dosed ICR mouse assessed as reduction in acetic acid-induced writhing response administered 20 mins before acetic acid injection and measured for 20 mins post acetic acid injection; type: functional
[13] = molecular target: T3, Kappa-type opioid receptor; test: Agonist activity at human recombinant KOR expressed in CHO cells assessed as cAMP accumulation at 10 uM relative to U-69,593; type: functional, cell-based
[14] = Apparent permeability at 10 uM incubated for 60 mins by RBT-24 kit; type: physicochemical; details: rat, not told

T1 sequence (P35372 whole entry): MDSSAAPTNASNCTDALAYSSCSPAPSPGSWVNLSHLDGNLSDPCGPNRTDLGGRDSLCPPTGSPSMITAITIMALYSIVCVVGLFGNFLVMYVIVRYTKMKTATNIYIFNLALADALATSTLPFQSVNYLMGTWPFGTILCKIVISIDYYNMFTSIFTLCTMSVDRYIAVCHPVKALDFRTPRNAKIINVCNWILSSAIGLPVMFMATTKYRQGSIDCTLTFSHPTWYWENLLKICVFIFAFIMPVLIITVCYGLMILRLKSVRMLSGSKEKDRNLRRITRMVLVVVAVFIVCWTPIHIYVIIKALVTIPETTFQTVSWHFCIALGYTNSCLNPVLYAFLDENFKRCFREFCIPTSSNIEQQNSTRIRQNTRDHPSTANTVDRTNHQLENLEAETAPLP
T3 sequence (P41145 whole entry): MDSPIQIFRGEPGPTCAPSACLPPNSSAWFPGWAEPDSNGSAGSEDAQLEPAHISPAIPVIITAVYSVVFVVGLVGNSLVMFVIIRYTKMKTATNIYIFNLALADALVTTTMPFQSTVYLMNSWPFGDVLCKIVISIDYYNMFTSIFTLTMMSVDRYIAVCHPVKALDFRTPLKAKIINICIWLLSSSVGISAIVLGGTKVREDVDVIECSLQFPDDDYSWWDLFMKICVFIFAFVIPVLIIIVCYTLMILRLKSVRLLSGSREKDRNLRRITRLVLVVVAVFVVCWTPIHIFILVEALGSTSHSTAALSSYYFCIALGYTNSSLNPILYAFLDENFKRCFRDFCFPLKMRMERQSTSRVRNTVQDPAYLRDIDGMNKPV
T2 sequence (P41143 whole entry): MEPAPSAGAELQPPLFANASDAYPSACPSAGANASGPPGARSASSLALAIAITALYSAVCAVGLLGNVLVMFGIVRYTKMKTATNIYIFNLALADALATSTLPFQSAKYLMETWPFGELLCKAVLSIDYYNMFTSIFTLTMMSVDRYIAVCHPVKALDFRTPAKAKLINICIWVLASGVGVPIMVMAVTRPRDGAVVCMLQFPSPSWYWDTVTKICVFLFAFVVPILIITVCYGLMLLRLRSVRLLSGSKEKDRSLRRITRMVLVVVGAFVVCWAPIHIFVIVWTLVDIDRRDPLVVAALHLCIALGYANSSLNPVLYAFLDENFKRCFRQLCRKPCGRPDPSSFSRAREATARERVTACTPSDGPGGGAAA

Oc1ccc2c(c1)C13CCN(CC4CC4)C(C2)C12CCC1C3[C@@H](CN1c1cnccn1)C2 (stereo partly drawn)
pKi (Mu-type opioid receptor [1]): 9.09
pKi [2]: 9.45
pEC50 [3]: 9.37
Emax (Mu-type opioid receptor [4]): 5.7%
Ratio Ki (Homo sapiens [5]): 1.3
pKi [6]: 9.32
Emax [7]: 71%
Emax [8]: 24%
Ratio Ki (Homo sapiens [9]): 2.3
pEC50 [10]: 9.70

Oc1ccc2c(c1)C13CCN(CC4CC4)C(C2)C12CCC1C3[C@@H](CN1c1ccccc1)C2 (stereo partly drawn)
pKi (Mu-type opioid receptor [1]): 9.02
pKi [2]: 8.90
pEC50 [3]: 8.33
Emax (Mu-type opioid receptor [11]): 50%
Ratio Ki (Homo sapiens [5]): 1.9
pKi [6]: 8.61
Emax [7]: 82%
Emax [8]: 54%
Ratio Ki (Homo sapiens [9]): 0.8
pEC50 (Mu-type opioid receptor [12]): 8.00
pEC50 [10]: 8.09

O=C(c1ccccc1)N1C[C@H]2CC34CCC1C2C31CCN(CC2CC2)C4Cc2ccc(O)cc21 (stereo partly drawn)
pKi (Mu-type opioid receptor [1]): 9.24
pKi [2]: 9.68
pEC50 [3]: 9.51
Emax (Mu-type opioid receptor [4]): 4.7%
Ratio Ki (Homo sapiens [5]): 1.7
pKi [6]: 9.44
ED50 (Mus musculus): 1.15 mg/kg
Emax [7]: 93%
Emax [13]: 5.5%
Ratio Ki (Homo sapiens [9]): 2.7
Papp at 1 h, 10 µM [14]: 18.5 ×10⁻⁶ cm/s

O=C(Nc1ccccc1)N1C[C@H]2CC34CCC1C2C31CCN(CC2CC2)C4Cc2ccc(O)cc21 (stereo partly drawn)
pKi (Mu-type opioid receptor [1]): 9.26
pKi [2]: 9.58
pEC50 [3]: 8.82
Emax (Mu-type opioid receptor [4]): 6.2%
Ratio Ki (Homo sapiens [5]): 1.3
pKi [6]: 9.47
Emax [7]: 42%
Emax [8]: 44%
Ratio Ki (Homo sapiens [9]): 2.1
pEC50 [10]: 9.52

O=C(c1ccoc1)N1C[C@H]2CC34CCC1C2C31CCN(CC2CC2)C4Cc2ccc(O)cc21 (stereo partly drawn)
pKi (Mu-type opioid receptor [1]): 9.34
pKi [2]: 9.50
pEC50 [3]: 9.64
Emax (Mu-type opioid receptor [11]): 50%
Ratio Ki (Homo sapiens [5]): 0.7
pKi [6]: 9.66
Emax [7]: 93%
Emax [8]: 33%
Ratio Ki (Homo sapiens [9]): 1.5
pEC50 (Mu-type opioid receptor [12]): 6.81
pEC50 [10]: 8.85

O=C(c1ccccn1)N1C[C@H]2CC34CCC1C2C31CCN(CC2CC2)C4Cc2ccc(O)cc21 (stereo partly drawn)
pKi (Mu-type opioid receptor [1]): 9.14
pKi [2]: 9.34
pEC50 [3]: 9.46
Emax (Mu-type opioid receptor [4]): 6.5%
Ratio Ki (Homo sapiens [5]): 1.2
pKi [6]: 9.25
Emax [7]: 85%
Emax [13]: 18%
Ratio Ki (Homo sapiens [9]): 1.6

Oc1ccc2c(c1)C13CCN(CC4CC4)C(C2)C12CCC1C3[C@@H](CN1CC1CCCCC1)C2 (stereo partly drawn)
pKi (Mu-type opioid receptor [1]): 8.60
pKi [2]: 8.84
pEC50 [3]: 8.77
Emax (Mu-type opioid receptor [11]): 17%
Ratio Ki (Homo sapiens [5]): 0.5
pKi [6]: 9.11
Emax [7]: 82%
Emax [8]: 45%
Ratio Ki (Homo sapiens [9]): 1.7
pEC50 (Mu-type opioid receptor [12]): 7.68
pEC50 [10]: 8.24

O=C(Oc1ccccc1)N1C[C@H]2CC34CCC1C2C31CCN(CC2CC2)C4Cc2ccc(O)cc21 (stereo partly drawn)
pKi (Mu-type opioid receptor [1]): 9.08
pKi [2]: 9.08
pEC50 [3]: 8.89
Emax (Mu-type opioid receptor [4]): 5.6%
Ratio Ki (Homo sapiens [5]): 0.6
pKi [6]: 9.28
Emax [7]: 92%
Emax [8]: 27%
Ratio Ki (Homo sapiens [9]): 1
pEC50 [10]: 8.60

Oc1ccc2c(c1)C13CCN(CC4CC4)C(C2)C12CCC1C3[C@@H](CN1Cc1ccccc1)C2 (stereo partly drawn)
pKi (Mu-type opioid receptor [1]): 8.46
pKi [2]: 9.23
pEC50 [3]: 9.38
Emax (Mu-type opioid receptor [4]): 18%
Ratio Ki (Homo sapiens [5]): 7.3
pKi [6]: 8.37
Emax [7]: 90%
Emax [8]: 36%
Ratio Ki (Homo sapiens [9]): 5.9
pEC50 [10]: 8.35
